Like-named read-outs stand apart in the source and are kept apart here.
What was measured:
Bromoform in water = format: physicochemical; settings: deionised water
Protocol: Manufactured synthetic CHBr3, 98% purity, and stabilized with 2-methyl-2-butene (Sigma-Aldrich, product no: 241032) was used for the preparation of the four excipients. The Corn Oil, Molasses and Water were made with similar protocols as per the Canola Oil in Example 4. Briefly, CHBr3 was dissolved and homogenised into either retail corn oil, molasses, or deionised water and homogenised by repeated inversion and left to stabilise overnight prior to achieve a concentration of 3.0±0.10 mg/g. Cyclodextrin was prepared as described previously (patent WO 96/14062, PCT AU95/00733). Briefly, CHBr3 was added to α-cyclodextrin (Sigma-Aldrich, product no: 779008) aqueous solution and mixed overnight. The solid was then separated, washed, then dried. The CHBr3 concentration of the dried powder was determined and then diluted with additional α-cyclodextrin to adjust the CHBr3 concentration to 3.0±0.10 mg/g. TGP, CH4, H2 and CO2 production, IVDDM, and VFA were determined using the protocol as described in Example 4.

in vitro fermentation = settings: doses of 0.25, 1 and 1.5% of feed dry matter; cited from earlier work
[1] = at 20 degrees; cited from earlier work
rumen fluid = settings: formulated in DMSO, cited from earlier work

SMILES: BrC(Br)Br [bromoform, tribromomethane]
- concentration of bromoform prepared in water (Bromoform in water): 3.0±0.10 mg bromoform per gram deionised water
- methane production (in vitro fermentation): no effect
- solubility in water [1]: less than 0.1 g bromofrm per 100 g water
- methane production in in vitro fermentation (rumen fluid; 1 μM): does not significantly inhibit
- methane production in in vitro fermentation (rumen fluid; doses of 5 μM, 10 μM and 25 μM): significantly inhibits
